Source: the supplement of paper PMC4862054

Legend:
Conditions in all cases: incubation time: 72 h
[1] = test system: MDA-MB-468; test: normalised response (% of control), CellTiter-Glo; higher = more viable cells (100 = DMSO, 0 = benzethonium chloride kill control)
Description: (§1)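 DSRT, 72 h incubation, CellTox Green / CellTiter-Glo readout. Signal is normalised to DMSO and benzethonium chloride controls. Value is the normalised response at the highest dose.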

[2] = test system: MDA-MB-436; test: as above
Description: as §1

[3] = test system: SK-BR-3; test: as above
Description: as §1

[4] = test system: HCC1937; test: as above
Description: as §1

[5] = test system: MCF-10A; test: as above
Description: as §1

[6] = test system: MDA-MB-453; test: as above
Description: as §1

[7] = test system: CAL-85-1; test: as above
Description: as §1

[8] = test system: CAL-120; test: as above
Description: as §1

[9] = test system: BT-474; test: as above
Description: as §1

[10] = test system: HCC1143; test: as above
Description: as §1

[11] = test system: CAL-148; test: as above
Description: as §1

[12] = test system: Hs578T; test: as above
Description: as §1

[13] = test system: DU-4475; test: as above
Description: as §1

[14] = test system: BT-549; test: as above
Description: as §1

[15] = test system: HCC1599; test: as above
Description: as §1

[16] = test system: MDA-MB-231; test: as above
Description: as §1

[17] = test system: HDQ-P1; test: as above
Description: as §1

[18] = test system: CAL-51; test: as above
Description: as §1

[19] = test system: MFM-223; test: as above
Description: as §1

[20] = test system: MDA-MB-468; test: normalised response (% of control), CellTox Green; higher = less cell death (100 = DMSO, 0 = benzethonium chloride kill control)
Outline: (§2)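 Two readouts were taken after 72 h: CellTox Green fluorescence (485/520 nm) first, then CellTiter-Glo luminescence after 10 min at room temperature. Breast cancer cell lines had been seeded as 20 µl suspension into 384-well plates holding compound at 5 concentrations in 10-fold steps across a compound-specific 10,000-fold range. Each value is a normalised signal at a single concentration, with plates scaled to 0.1 % DMSO (100) and a positive kill control (0).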

[21] = test system: MDA-MB-436; test: as above
Outline: as §2

[22] = test system: HCC1937; test: as above
Outline: as §2

[23] = test system: MCF-10A; test: as above
Outline: as §2

[24] = test system: MDA-MB-453; test: as above
Outline: as §2

[25] = test system: CAL-85-1; test: as above
Outline: as §2

[26] = test system: CAL-120; test: as above
Outline: as §2

[27] = test system: BT-474; test: as above
Outline: as §2

[28] = test system: HCC1143; test: as above
Outline: as §2

[29] = test system: CAL-148; test: as above
Outline: as §2

[30] = test system: Hs578T; test: as above
Outline: as §2

[31] = test system: DU-4475; test: as above
Outline: as §2

[32] = test system: BT-549; test: as above
Outline: as §2

[33] = test system: HCC1599; test: as above
Outline: as §2

[34] = test system: MDA-MB-231; test: as above
Outline: as §2

[35] = test system: HDQ-P1; test: as above
Outline: as §2

[36] = test system: CAL-51; test: as above
Outline: as §2

[37] = test system: MFM-223; test: as above
Outline: as §2

Compound | normalised response [1] | normalised response [2] | normalised response [3] | normalised response [4] | normalised response [5] | normalised response [6] | normalised response [7] | normalised response [8] | normalised response [9] | normalised response [10] | normalised response [11] | normalised response [12] | normalised response [13] | normalised response [14] | normalised response [15] | normalised response [16] | normalised response [17] | normalised response [18] | normalised response [19] | normalised response [20] | normalised response [21] | normalised response [22] | normalised response [23] | normalised response [24] | normalised response [25] | normalised response [26] | normalised response [27] | normalised response [28] | normalised response [29] | normalised response [30] | normalised response [31] | normalised response [32] | normalised response [33] | normalised response [34] | normalised response [35] | normalised response [36] | normalised response [37]
Cc1c(Cn2c(C)nc3c(C(=O)O)cc(N4CCOCC4)cc32)cccc1C(F)(F)F (10000 nM) | 69.4% | 86.2% | 98.3% | 92.1% | 111% | 94.1% | 97.3% | 100% | 94.5% | 106% | 114% | 97.6% | 97% | 85.4% | 97.5% | 96.1% | 100% | 64.9% | 102% | 174% | 96.6% | 114% | 108% | 94.8% | 78.3% | 106% | 100% | 115% | 77.8% | 120% | 102% | 101% | 108% | 110% | 112% | 90.7% | 82.5%
CC/C(=C(\c1ccc(O)cc1)c1ccc(OCCN(C)C)cc1)c1ccccc1 [4-hydroxytamoxifen] (10000 nM) | 13.8% | 35% | 49.8% | 25.4% | 81.4% | 34.4% | 44.9% | 76.5% | 63% | 88.6% | 85% | 80.8% | 84% | 62.7% | 66.5% | 41.1% | 73.1% | 60.5% | 45.5% | -1140% | 74.7% | -22.6% | 75.6% | 46.9% | 34% | 44.5% | 14.6% | 68% | 73.9% |  | 92% | 68% | 82.9% | 7.14% | 81.4% | 103% | 91.1%
CCCCC/C=C/C=C1/C(=O)C=C[C@@H]1C/C=C\CCCC(=O)O [15D-PGJ2] (800 nM) | 88.7% | 97.4% | 106% | 102% | 108% | 106% | 101% | 101% | 95.4% | 107% | 108% | 102% | 100% | 96.5% | 97% | 97.8% | 97.1% | 71.8% | 102% | 119% | 107% | 110% | 95.6% | 72.9% | 94.3% | 109% | 106% | 110% | 102% | 124% | 94.9% | 105% | 108% | 104% | 82.9% | 104% | 106%
CC(=O)OC[C@H]1O[C@@H]([S-])[C@H](OC(C)=O)[C@@H](OC(C)=O)[C@@H]1OC(C)=O.CCP(CC)CC.[Au+] [Auranofin] (2500 nM) | 0.33% | 22.4% | 34.3% | 1.72% | 37.9% | 1.5% | 4.51% | 49.8% | 47.9% | 31.8% | 41.8% | 19.1% | 32.6% | 0.2% | 39.1% | 8.02% | 11.1% | 9.42% | 21.9% | -35.6% | 84.1% | 1.35% | 76.2% | 28.8% | -5.72% | 68.4% | 48.5% | 73.2% | 60.1% | 79.6% | 91% | -11.2% | 96.3% | 13.3% | -37% | 71% | 56.2%
O=S(=O)(c1cccc2cnccc12)N1CCCNCC1 [Fasudil] (50000 nM) | 93.6% | 90.2% | 57% | 96.5% | 78.3% | 79.6% | 111% | 67.1% | 67.5% | 83.7% | 96.3% | 86.7% | 86.3% | 78.9% | 96.6% | 70.1% | 89% | 117% | 88.2% | 90.6% | 94.4% | 79.6% | 87.7% | 101% | 80.6% | 93.2% | 99.3% | 99.4% | 97.8% | 118% | 95.4% | 97.4% | 80.3% | 50.6% |  | 116% | 102%
Cc1cccc(-c2nn3c(c2-c2ccnc4ccc(C(N)=O)cc24)CCC3)n1 [Galunisertib] (1000 nM) | 101% | 112% | 116% | 101% | 90.8% | 106% | 110% | 105% | 99.6% | 105% | 118% | 106% | 108% | 95.7% | 108% | 98.3% | 105% | 91.8% | 108% | 121% |  | 116% | 103% | 98.8% | 68.4% | 99.3% | 103% | 127% | 105% | 112% | 108% | 109% | 112% | 127% | 108% | 98.5% | 102%
CS(=O)(=O)N1CCN(Cc2cc3nc(-c4cccc5[nH]ncc45)nc(N4CCOCC4)c3s2)CC1 [Pictilisib] (10000 nM) | 26.4% | 43% | 22.2% | 32.3% | 18.4% | 13.4% | 27.8% | 34.3% | 50.6% | 26% | 15.6% | 31.3% | 81.4% | 25.6% | 64.9% | 48.8% | 19.9% | 8.84% | 28.2% | 155% | 116% | 91.4% | 79.4% | 92% | 50.2% | 105% | 47.1% | 120% | 47.1% | 98.8% |  | 102% | 103% | 118% | 85.4% | 48.2% | 56.4%
O=C(NC[C@H](O)CO)c1ccncc1Nc1ccc(I)cc1F [Pimasertib] (10000 nM) | 53.5% | 79.7% | 58.6% | 68.1% | 26.6% | 89.2% | 40.8% | 65.4% | 53% | 79.1% | 71.6% | 64.6% | 0.07% | 84.2% | 89.8% | 54% | 55.1% | 90.2% | 63% | 169% | 100% | 91% | 95.4% | 112% | 51.5% | 72.1% | 88.3% | 124% | 99.6% | 105% | 72.9% | 125% | 105% | 70.1% | 81.8% | 93.8% | 64.9%
CC(C)N(CCCNC(=O)Nc1ccc(C(C)(C)C)cc1)C[C@H]1O[C@@H](n2cc(Br)c3c(N)ncnc32)[C@H](O)[C@@H]1O [SGC0946] (10000 nM) | 70.7% | 93.8% | 73.5% | 84.2% | 101% | 69.3% | 83.1% | 102% | 88.1% | 91.4% | 82.6% | 101% | 94.3% | 92.3% | 78% | 74.7% | 87.2% | 94.1% | 81.2% | 115% | 75% | 94% | 79.5% | 91.9% | 114% | 97.4% | 85.2% | 100% | 93.7% |  | 98.7% | 95.8% | 81.6% | 71.9% | 99.1% | 101% | 89.3%
